“And” between values parts separate entries of the source, which are not always exact repeats. Identical values can stand only once. Marks after values point to notes of the source that are not given here.
Tests used:
[1] = test system: M. tuberculosis H37Rv; assay: Example 9: compound of formula I added to first and second line anti-tuberculosis drugs (survival, lung CFU after 4 weeks); assay type: in vivo, mice; details: for Mean lung log10 CFU count (±) S.D. after 4 weeks of treatment with: Regimen alone / Mean lung log10 CFU count (±) S.D. after 4 weeks of treatment with: Regimen + U 25 mg/kg / Mean lung log10 CFU count (±) S.D. after 4 weeks of treatment with: Regimen + U 100 mg/kg: D0 8.36 ± 0.10; for Mean lung log10 CFU count (±) S.D. after 4 weeks of treatment with: Regimen alone: H 10, R 10, Eb 100, M 100 mg, Et 50, A 150 sc, C 20 mg/kg; for Mean lung log10 CFU count (±) S.D. after 4 weeks of treatment with: Regimen + U 25 mg/kg: labelled drug PLUS U 25 mg/kg; for Mean lung log10 CFU count (±) S.D. after 4 weeks of treatment with: Regimen + U 100 mg/kg: labelled drug PLUS U 100 mg/kg, lower limit of detection 3.40; for Time to 50% mortality: no treatment 21 days
[2] = test system: Mycobacterium tuberculosis H37Rv; assay type: in vivo, mice; details: 25 mg/kg
[3] = test system: Mycobacterium tuberculosis H37Rv; assay: Example 6: in vivo activity of the combination (lung CFU after 4 and 8 weeks); parameters: species or system mice; details: for Lung log10 CFU counts (±SD) after treatment with the indicated regimen plus the compound of formula (I) 100 mg/kg/day, Day 28 / Lung log10 CFU counts (±SD) after treatment with the indicated regimen plus the compound of formula (I) 100 mg/kg/day, Day 56: labelled regimen PLUS compound of formula (I) 100 mg/kg/day, INH 25, RIF 10, PZA 150, MXF 100 mg/kg; for Lung log10 CFU counts (±SD) after treatment with the indicated regimen plus the compound of formula (I) 100 mg/kg/day, Day 28 / Lung log10 CFU counts (±SD) after treatment with the indicated regimen plus the compound of formula (I) 100 mg/kg/day, Day 56 / Lung log10 CFU counts (±SD) after treatment with the indicated regimen, Day 56 / Lung log10 CFU counts (±SD) after treatment with the indicated regimen, Day 28: Day 0 7.37 ± 0.12; for reduction in lung CFU counts from baseline over the first 28 days: monotherapy, compound of formula (I) 100, INH 25, RIF 10 mg/kg; for Lung log10 CFU counts (±SD) after treatment with the indicated regimen, Day 56 / Lung log10 CFU counts (±SD) after treatment with the indicated regimen, Day 28: regimen as labelled, INH 25, RIF 10, PZA 150, MXF 100, compound of formula (I) 100 mg/kg; for Lung log10 CFU counts (±SD) after treatment with the indicated regimen, Day 28: 100 mg/kg
[4] = test system: Mycobacterium tuberculosis H37Rv; assay: Example 8B: eight week dose ranging study (second phase after 4 weeks RHZU25); assay type: in vivo, mice; parameters: Lung CFU / CFU-U only: unit not given here; details: 8 weeks: 4 weeks RHZU25 (4.19 ± 0.26) then 4 weeks of the labelled treatment; R 10, H 25 mg/kg; untreated 5.49 ± 0.23
Description: Eighty of the mice from Group 4 (in Example 8A) that had been receiving 25 mg/kg of the compound of formula I (U) along with rifampin(R), isoniazid(H), and pyrazinamide(Z) were evaluated in the second phase of the study. They were assigned to one of the groups described below in Table 6 and the study was continued for an additional 4 weeks (i.e. 8 week results).
As described above, 5 animals served as the control and no further drugs were given. Five were given the combination of rifampin(R) and isoniazid (H), five given isoniazid (H) or rifampin(R) alone. […] Six of these groups were also dosed with rifampin (R). The rifampin and isoniazid was dosed in the same manner and in the same amount as in Example 8A.
At the conclusion of the eight (8) week experiment, all of the animals were sacrificed and CFU lung counts were obtained.

[5] = test system: Mycobacterium tuberculosis H37Rv; assay: Example 8C: additional dose ranging study (4 and 8 weeks); assay type: in vivo, mice; details: lung; 4 weeks RHZU100 then 4 weeks of the labelled control regimen without U; untreated 4.91 ± 0.17
Description: The protocol described above in Example 8A and 8B was carried out on an alternative occasion. The only substantive changes were the number of animals per group and the initial incubation period.
Testing continued for an additional 4 weeks with 60 of the mice from Test Group 2 immediately above. The mice either received U alone, at varying doses, or the combination of U and R. The following results were obtained.

Compound | Mean lung log10 CFU count (±) S.D. after 4 weeks of treatment with: Regimen alone [1] | Mean lung log10 CFU count (±) S.D. after 4 weeks of treatment with: Regimen + U 25 mg/kg [1] | Mean lung log10 CFU count (±) S.D. after 4 weeks of treatment with: Regimen + U 100 mg/kg [1] | Time to 50% mortality [1] | also measured
NCC[C@H](O)C(=O)N[C@@H]1C[C@H](N)[C@@H](O[C@H]2O[C@H](CN)[C@@H](O)[C@H](O)[C@H]2O)[C@H](O)[C@H]1O[C@H]1O[C@H](CO)[C@@H](O)[C@H](N)[C@H]1O [A, amikacin] | 7.24 ± 0.14 log10 CFU | 6.78 ± 0.16 log10 CFU | 5.18 ± 0.17 log10 CFU |  | 
CC(C)/N=c1\cc2n(-c3ccc(Cl)cc3)c3ccccc3nc-2cc1Nc1ccc(Cl)cc1 [C, clofazimine] | 5.92 ± 0.24 log10 CFU | 6.25 ± 0.20 log10 CFU | 4.91 ± 0.14 log10 CFU |  | 
N[C@@H]1CON=C1O [Cs, cycloserine] |  | 7.19 ± 0.21 log10 CFU | 5.66 ± 0.11 log10 CFU | 22 days | 
CC[C@@H](CO)NCCN[C@@H](CC)CO [Eb, ethambutol] | 7.41 ± 0.57 log10 CFU | 6.86 ± 0.16 log10 CFU | 5.50 ± 0.13 log10 CFU | 30 days | 
CCc1cc(C(N)=S)ccn1 [Et, ethionamide] | 7.19 ± 0.04 log10 CFU | 7.18 ± 0.18 log10 CFU | 5.46 ± 0.15 log10 CFU |  | 
NNC(=O)c1ccncc1 [INH, isoniazid] | 7.01 ± 0.14 log10 CFU | 6.22 ± 0.06 log10 CFU | 5.79 ± 0.33 log10 CFU |  | log kill (reduction in mean lung CFU count compared to the baseline value) ([2]; 28 days): 1.87 log10; mean spleen weight ([2]; after 28 days of treatment, pre-treatment 105±11 mg, untreated 237±16 mg): 100 ± 1 mg; Lung log10 CFU counts (±SD) after treatment with the indicated regimen plus the compound of formula (I) 100 mg/kg/day, Day 28 [3]: 4.33 ± 0.29 log10 CFU; Lung log10 CFU counts (±SD) after treatment with the indicated regimen plus the compound of formula (I) 100 mg/kg/day, Day 56 [3]: 2.87 ± 0.23 log10 CFU; reduction in lung CFU counts from baseline over the first 28 days [3]: 1.58 log10; Lung log10 CFU counts (±SD) after treatment with the indicated regimen, Day 56 [3]: 4.53 ± 0.24 log10 CFU; Lung log10 CFU counts (±SD) after treatment with the indicated regimen, Day 28 [3]: 5.79 log10 CFU and 5.79 ± 0.14 log10 CFU; Lung CFU [4]: 4.46 ± 0.37
COc1c(N2C[C@@H]3CCCN[C@@H]3C2)c(F)cc2c(=O)c(C(=O)O)cn(C3CC3)c12 [M, moxifloxacin] | 6.49 ± 0.12 log10 CFU | 7.08 ± 0.10 log10 CFU | 5.33 ± 0.30 log10 CFU |  | 
Nc1ccc(C(=O)O)c(O)c1 [Ps, para-aminosalicyclic acid] |  | 6.87 ± 0.21 log10 CFU | 5.39 ± 0.32 log10 CFU | 31 days | 
CO[C@H]1/C=C/O[C@@]2(C)Oc3c(C)c(O)c4c(O)c(c(/C=N/N5CCN(C)CC5)c(O)c4c3C2=O)NC(=O)/C(C)=C\C=C\[C@H](C)[C@H](O)[C@@H](C)[C@@H](O)[C@@H](C)[C@H](OC(C)=O)[C@@H]1C [RIF, rifampin] | 6.23 ± 0.11 log10 CFU | 5.91 ± 0.21 log10 CFU | 5.02 ± 0.10 log10 CFU |  | CFU Count 8 weeks [5]: 4.16 ± 0.65; Lung log10 CFU counts (±SD) after treatment with the indicated regimen plus the compound of formula (I) 100 mg/kg/day, Day 28 [3]: 3.73 ± 0.19 log10 CFU; Lung log10 CFU counts (±SD) after treatment with the indicated regimen plus the compound of formula (I) 100 mg/kg/day, Day 56 [3]: 1.29 ± 0.22 log10 CFU; reduction in lung CFU counts from baseline over the first 28 days [3]: 1.63 log10; Lung log10 CFU counts (±SD) after treatment with the indicated regimen, Day 56 [3]: 4.65 ± 0.24 log10 CFU; Lung log10 CFU counts (±SD) after treatment with the indicated regimen, Day 28 [3]: 5.74 log10 CFU and 5.74 ± 0.17 log10 CFU; Lung CFU [4]: 4.18 ± 0.55
NC(=O)c1cnccn1 [Z, pyrazinamide] |  | 4.73 ± 0.38 log10 CFU | ≦3.59*** log10 CFU | 21 days | 
capreomycin |  | 6.81 ± 0.13 log10 CFU | 5.35 ± 0.17 log10 CFU | 22 days | 

Source: US20110190199A1, “Combination Therapy for Tuberculosis” (priority 2008, published 2011)
